For one compound, Activity results are on record in ChEMBL document CHEMBL5653594, “ZD1839 (Iressa): an orally active inhibitor of epidermal growth factor signaling with potential for cancer therapy” (Cancer Res, 2002).

The subject of experiment [1] is A-431. Put plainly: Antitumor activity against human A-431 cells xenografted in po dosed Swiss nu/nu mouse assessed as reduction in c-fos mRNA expression measured after 4 days by RT-PCR analysis. The class given is functional, organism-based. The conditions noted are these: dose 12.5-200 mg/kg, time 4.0 day. (In general: Xenograft models place foreign cells or tissue in a host animal.)

The subject of experiment [2] is A-431. Nature of the experiment: Antitumor activity against human A-431 cells xenografted in Swiss nu/nu mouse assessed as c-fos mRNA expression at 50 mg/kg measured after 6 to 36 hrs by RT-PCR analysis relative to control. The class given is functional. The conditions noted are these: time 6-36 hrs.
In experiment [3] the test system is A-431. Nature of the experiment: Antitumor activity against human A-431 cells xenografted in Swiss nu/nu mouse assessed as reduction in c-fos mRNA expression at 50 mg/kg measured after 36 hrs by RT-PCR analysis relative to control. The class given is functional. Details: scale not given: the % may be the effect or the level left.
For experiment [4], the system named is A-431. Nature of the experiment: Antitumor activity against human A-431 cells xenografted in Swiss nu/nu mouse assessed as reduction in c-fos mRNA expression at 200 mg/kg measured after 36 hrs by RT-PCR analysis relative to control. The class given is functional. On the set-up: scale not given: the % may be the effect or the level left.

Take `COc1cc2ncnc(Nc3ccc(F)c(Cl)c3)c2cc1OCCCN1CCOCC1` [GEFITINIB]: the Activity result is “Dose-Dependent Effect” in the experiment with A-431 [1], 5% in the experiment on A-431 [2], 94% with A-431 [3] and more than 99% in the experiment on A-431 [4].
